Experimental data from US10392385B2, “N-((1-phenyl-9H-pyrido[3,4-b]indol-3-yl)methyl)cinnamamides as potential anticancer agents and preparation thereof” (Council of Scientific & Industrial Research, priority 2016, dated 2019).

Key:
[1] = test system: A549 (lung cancer); test: MTT cytotoxicity assay, A549; format: cell-based; conditions: Homo sapiens, 48 h of drug treatment (footnote), average of three experiments
From the text: (§1) The N-((1-phenyl-9H-pyrido[3,4-b]indol-3-yl)methyl)cinnamamides (1a-h, 2a-h and 3a-h) have been tested against five human cancer cell lines such as A549 (lung cancer), MCF-7 (breast cancer), B16 (melanoma), HeLa (cervical cancer) and NIH3T3 (mouse embryonic fibroblast cancer). All the cancer cell lines (HeLa, A549, MCF-7 and B16) were procured from National Centre for Cell Sciences (NCCS, Pune, India) and NIH 3T3 cell line was obtained from American Type Culture Collection (Rockville, Md., USA). Stock cells were cultured in DMEM supplemented with 10% Fetal Bovine Serum (FBS), in an humidified atmosphere of 5% CO2 at 37° C. until they are 80% confluent. To study the cytotoxicity of the compounds, after 80% confluence, cells were trypsinized with 0.1% trypsin-EDTA and harvested by centrifugation at 500×g. Serial dilutions of cells were made from 1×10^6 to 1×10^3 cells per mL The cells were seeded in triplicate in a 96 well plate. The cells were seeded in triplicate in a 96 well plate. […] The cell viability was determined by measuring the ability of cells to transform MTT to a purple coloured formazan dye. The absorbance of samples at 570 nm was measured using a UV-Visible spectrophotometer. Percentage of viable cells was calculated by using the formula given below.
(§2) Where the OD570 (sample) corresponds to absorbance obtained from the wells treated with compound and OD570 (control) represents the absorbance from the wells in which no compound was added.

[2] = test system: MCF-7 (breast cancer); test: MTT cytotoxicity assay, MCF-7; format: cell-based; conditions: Homo sapiens, MCF7, average of three experiments
From the text: as §1
(§3) Where the OD570 (sample) corresponds to absorbance obtained from the wells treated with compound and OD570 (control) represents the absorbance from the wells in which no compound was added. For these compounds results are expressed as half maximal inhibitory concentration (IC50) values and the anticancer activity data of 1a-h, 2a-h and 3a-h are shown in Table 2.

[3] = test system: B16 (melanoma); test: MTT cytotoxicity assay, B16; format: cell-based; conditions: 48 h of drug treatment (footnote), average of three experiments
From the text: as §1, §3

[4] = test system: HeLa (cervical cancer); test: MTT cytotoxicity assay, HeLa; format: cell-based; conditions: Homo sapiens, of drug treatment (footnote), average of three experiments
From the text: as §1, §3

[5] = test system: NIH3T3 (mouse embryonic fibroblast cell line); test: MTT cytotoxicity assay, NIH3T3; format: cell-based; conditions: 48 h of drug treatment (footnote), average of three experiments
From the text: as §1, §3

[6] = test system: A549; conditions: lung cancer; 48 h of drug treatment; average of three experiments; cited from earlier work
[7] = test system: MCF-7; conditions: breast cancer; 48 h of drug treatment; average of three experiments; cited from earlier work
[8] = test system: HeLa; conditions: cervical cancer; 48 h of drug treatment; average of three experiments; cited from earlier work
[9] = test system: A549, MCF-7, B16, HeLa and NIH3T3 cell lines; test: MTT cytotoxicity assay, all the cell lines tested; format: cell-based; conditions: summary over A549, MCF-7, B16, HeLa, read-out: IC50 against all the cell lines tested
From the text: as §1, with “500×g.” for “500×g. Serial dilutions of cells were made from 1×10^6 to 1×10^3 cells per mL The cells were seeded in triplicate in a 96 well plate. The cells were seeded in triplicate in a 96 well plate.”
as §2

Structure (SMILES)	IC50 [1]	IC50 [2]	IC50 [3]	IC50 [4]	IC50 [5]	melting point	IC50 [6]	IC50 [7]	IC50 [8]	IC50 [9]
COc1ccc(-c2nc(CNC(=O)/C=C/c3ccc(F)cc3)cc3c2[nH]c2ccccc23)cc1 [Compound 3c, (E)-3-(4-fluorophenyl)-N-((1-(4-methoxyphenyl)-9H-pyrido[3,4-b]indol-3-yl)methyl)acrylamide]	20.2 ± 1.3 nM	18.2 ± 0.7 nM	21.9 ± 0.3 nM	22.8 ± 0.6 nM	36.9 ± 1.6 nM	145 to 148 °C	–	–	–	–
COc1ccc(-c2nc(CNC(=O)/C=C/c3cc(F)cc(F)c3)cc3c2[nH]c2ccccc23)cc1 [Compound 3d, (E)-3-(3,5-difluorophenyl)-N-((1-(4-methoxyphenyl)-9H-pyrido[3,4-b]indol-3-yl)methyl)acrylamide]	20 ± 1.1 nM	17.2 ± 1.2 nM	23.87 ± 0.2 nM	24.6 ± 0.4 nM	37.5 ± 1.3 nM	230 to 232 °C	–	–	–	–
COc1ccc(-c2nc(CNC(=O)/C=C/c3cc(OC)ccc3OC)cc3c2[nH]c2ccccc23)cc1 [Compound 3e, (E)-3-(2,5-dimethoxyphenyl)-N-((1-(4-methoxyphenyl)-9H-pyrido[3,4-b]indol-3-yl)methyl)acrylamide]	18.9 ± 1.2 nM	16.5 ± 0.7 nM	22.1 ± 0.4 nM	25.4 ± 0.3 nM	34.4 ± 1.6 nM	130 to 135 °C	–	–	–	–
COc1ccc(-c2nc(CNC(=O)/C=C/c3ccc(O)c(OC)c3)cc3c2[nH]c2ccccc23)cc1 [Compound 3g, (E)-3-(4-hydroxy-3-methoxyphenyl)-N-((1-(4-methoxyphenyl)-9H-pyrido[3,4-b]indol-3-yl)methyl)acrylamide]	21.2 ± 1.5 nM	17.2 ± 0.5 nM	19.8 ± 0.5 nM	24.87 ± 0.2 nM	39.9 ± 1.6 nM	215 to 220 °C	–	–	–	–
COc1cc(-c2nc(CN)cc3c2[nH]c2ccccc23)cc(OC)c1OC [Compound 21b, (1-(3,4,5-trimethoxyphenyl)-9H-pyrido[3,4-b]indol-3-yl)methanamine]	–	–	–	–	–	–	15100 nM	18600 nM	21700 nM	–
COc1ccc(-c2nc(CN)cc3c2[nH]c2ccccc23)cc1 [Compound 21c, (1-(4-methoxyphenyl)-9H-pyrido[3,4-b]indol-3-yl)methanamine]	–	–	–	–	–	–	17800 nM	18900 nM	18600 nM	–
NCc1cc2c([nH]c3ccccc32)c(-c2ccc(C(F)(F)F)cc2)n1 [Compound 21e]	–	–	–	–	–	–	15800 nM	12000 nM	15800 nM	–
COc1cccc2c1C(=O)c1c(O)c3c(c(O)c1C2=O)C[C@@](O)(C(=O)CO)C[C@@H]3O[C@H]1C[C@H](N)[C@H](O)[C@H](C)O1 [Doxorubicin, reference compound]	–	580 ± 0.2 nM	670 ± 0.7 nM	780 ± 0.5 nM	1720 ± 0.8 nM	–	–	–	–	> 500 nM
